According to US20260285850A1, “SUBSTITUTED OXAZOLIDINONES AND IMIDAZOLINONES AS HERBICIDES” (FMC CORPORATION, priority 2023, published 2026):

What was measured:
Type in all cases: in vivo
[1] = test system: ducksalad (Heteranthera limosa); assay: Test B flooded paddy test, visual plant response rating 0-100; conditions: 250 g ai/ha, Flood, applied to paddy water, evaluated after 13 days
Outline: (§1)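 Paddy-water application: test compounds went directly into water flooded 3 cm above the soil surface, with plants at 2 leaves. After a 13-day greenhouse period, responses were judged by eye relative to controls; a dash marks an untested entry.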

rice (Oryza sativa) = assay: as above; conditions: 250 g ai/ha, Flood, applied to paddy water, evaluated after 13 days
Outline: as §1

[2] = test system: sedge, umbrella (small-flower umbrella sedge, Cyperus difformis); assay: as above; conditions: 250 g ai/ha, Flood, applied to paddy water, evaluated after 13 days
Outline: as §1

[3] = test system: barnyardgrass (Echinochloa crusgalli); assay: as above; conditions: 250 g ai/ha, Flood, applied to paddy water, evaluated after 13 days
Outline: as §1

[4] = test system: green foxtail (Setaria viridis); assay: Test A preemergence soil spray, visual injury rating 0-100; conditions: 10 days
Outline: (§2)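 Compound in a non-phytotoxic, surfactant-containing solvent is applied either as a directed soil spray before seedlings emerge or onto emerged plants 2-10 cm tall; pots hold a loam-sand blend. Plants grow 10 days under greenhouse conditions and are rated by eye against untreated controls (0 no effect, 100 complete control).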

[5] = test system: oat, wild (wild oat, Avena fatua); assay: as above; conditions: 10 days
Outline: as §2

[6] = test system: barnyardgrass (Echinochloa crus-galli); assay: as above; conditions: 10 days
Outline: as §2

corn (Zea mays) [7] = assay: as above; conditions: 10 days
Outline: as §2

kochia (Bassia scoparia) [8] = assay: as above; conditions: 10 days
Outline: as §2

[9] = test system: wheat (Triticum aestivum); assay: as above; conditions: 10 days
Outline: as §2

[10] = test system: ragweed (common ragweed, Ambrosia artemisiifolia); assay: as above; conditions: 10 days
Outline: as §2

[11] = test system: blackgrass (Alopecurus myosuroides); assay: as above; conditions: 10 days
Outline: as §2

soybean (Glycine max) [12] = assay: as above; conditions: 10 days
Outline: as §2

[13] = test system: palmer (palmer amaranth, palmer pigweed, Amaranthus palmeri); assay: as above; conditions: 10 days
Outline: as §2

[14] = test system: ryegrass, Italian (italian ryegrass, Lolium multiflorum); assay: as above; conditions: 10 days
Outline: as §2

[15] = test system: green foxtail (Setaria viridis); assay: Test A postemergence application, visual injury rating 0-100
Outline: as §2

[16] = test system: oat, wild (wild oat, Avena fatua); assay: as above; conditions: for Oat, Wild plant response rating (0 to 100 scale): Postemergence
Outline: as §2

[17] = test system: barnyardgrass (Echinochloa crus-galli); assay: as above; conditions: for Barnyardgrass plant response rating (0 to 100 scale): Postemergence
Outline: as §2

corn (Zea mays) [18] = assay: as above; conditions: for Corn plant response rating (0 to 100 scale): Postemergence
Outline: as §2

kochia (Bassia scoparia) [19] = assay: as above; conditions: for Kochia plant response rating (0 to 100 scale): Postemergence
Outline: as §2

[20] = test system: wheat (Triticum aestivum); assay: as above; conditions: for Wheat plant response rating (0 to 100 scale): Postemergence
Outline: as §2

[21] = test system: ragweed (common ragweed, Ambrosia artemisiifolia); assay: as above; conditions: for Ragweed plant response rating (0 to 100 scale): Postemergence
Outline: as §2

[22] = test system: galium (catchweed bedstraw, Galium aparine); assay: as above; conditions: for Galium plant response rating (0 to 100 scale): Postemergence
Outline: as §2

[23] = test system: blackgrass (Alopecurus myosuroides); assay: as above; conditions: for Blackgrass plant response rating (0 to 100 scale): Postemergence
Outline: as §2

soybean (Glycine max) [24] = assay: as above; conditions: for Soybean plant response rating (0 to 100 scale): Postemergence
Outline: as §2

[25] = test system: palmer (palmer amaranth, palmer pigweed, Amaranthus palmeri); assay: as above
Outline: as §2

[26] = test system: ryegrass, Italian (italian ryegrass, Lolium multiflorum); assay: as above; conditions: for Ryegrass, Italian plant response rating (0 to 100 scale): Postemergence
Outline: as §2

[27] = test system: horseweed (Erigeron canadensis); assay: as above; conditions: Postemergence
Outline: as §2

[28] = 62 g ai/ha, 0 = no effect, 100 = complete control
[29] = 62 g ai/ha, postemergence, 10 days, 0 = no effect, 100 = complete control
[30] = Postemergence, 16 g ai/ha, greenhouse 10 days, 0 no effect, 100 complete control
[31] = 16 g ai/ha, greenhouse 10 days, 0 no effect, 100 complete control
[32] = 31 g ai/ha, 0 = no effect, 100 = complete control
[33] = 125 g ai/ha, 0 = no effect, 100 = complete control
[34] = 31 g ai/ha, greenhouse 10 days, 0 no effect, 100 complete control
[35] = 125 g ai/ha, 10 days, 0 is no effect, 100 is complete control

COC(=O)C1C=CC(NC(=O)C2(C(F)(F)F)CN(c3cc(F)c(F)c(F)c3)C(=O)O2)C1 (mixture of isomers) [Compound 162]
80: Barnyardgrass plant response rating (0-100) [6, 28] | Ryegrass, Italian plant response rating (0-100) [14, 28] | Foxtail, Green plant response rating (0-100) [15, 29] | Oat, Wild plant response rating (0 to 100 scale) [16, 31]
10: Ragweed plant response rating (0-100) [10, 28] | Soybean plant response rating (soybean (Glycine max) [12]; 16 g ai/ha, 0 to 100 scale) | Pigweed, Palmer plant response rating (0 to 100 scale) [25, 30]
65: Plant response rating, Ducksalad (0 to 100 scale, 0 is no effect and 100 is complete control) [1]
60: Blackgrass plant response rating (0-100) [11, 28] | Galium plant response rating (0-100) [22, 29] | Soybean plant response rating (0 to 100 scale) (soybean (Glycine max) [24]; [31])
50: Soybean plant response rating (0-100) (soybean (Glycine max) [12]; [28]) | Barnyardgrass plant response rating (0 to 100 scale) [17, 31] | Pigweed, Palmer plant response rating (0-100) [25, 29]
0: Plant response rating, Rice (0 to 100 scale, 0 is no effect and 100 is complete control) (rice (Oryza sativa)) | Plant response rating, Sedge, Umbrella (0 to 100 scale, 0 is no effect and 100 is complete control) [2] | Foxtail, Green plant response rating ([4]; 16 g ai/ha, 0 to 100 scale) | Barnyardgrass plant response rating ([6]; 16 g ai/ha, 0 to 100 scale) | Corn plant response rating (corn (Zea mays) [7]; 16 g ai/ha, 0 to 100 scale) | Kochia plant response rating (kochia (Bassia scoparia) [8]; 16 g ai/ha, 0 to 100 scale) | Ragweed plant response rating ([10]; 16 g ai/ha, 0 to 100 scale) | Blackgrass plant response rating ([11]; 16 g ai/ha, 0 to 100 scale) | Pigweed, Palmer plant response rating ([13]; 16 g ai/ha, 0 to 100 scale) | Ryegrass, Italian plant response rating ([14]; 16 g ai/ha, 0 to 100 scale) | Kochia plant response rating (0 to 100 scale) (kochia (Bassia scoparia) [19]; [31])
40: Kochia plant response rating (0-100) (kochia (Bassia scoparia) [8]; [28]) | Ragweed plant response rating (0-100) [21, 29]
100: Barnyardgrass plant response rating (0-100) [17, 29] | Corn plant response rating (0-100) (corn (Zea mays) [18]; [29]) | Corn plant response rating (0 to 100 scale) (corn (Zea mays) [18]; [31]) | Blackgrass plant response rating (0-100) [23, 29]
20: Plant response rating, Barnyardgrass (0 to 100 scale, 0 is no effect and 100 is complete control) [3] | Oat, Wild plant response rating ([5]; 16 g ai/ha, 0 to 100 scale) | Wheat plant response rating ([9]; 16 g ai/ha, 0 to 100 scale) | Ragweed plant response rating (0 to 100 scale) [21, 31]
30: Foxtail, Green plant response rating (0-100) [4, 28] | Pigweed, Palmer plant response rating (0-100) [13, 28] | Foxtail, Green plant response rating (0 to 100 scale) [15, 30] | Galium plant response rating (0 to 100 scale) [22, 31] | Ryegrass, Italian plant response rating (0 to 100 scale) [26, 31]
70: Corn plant response rating (0-100) (corn (Zea mays) [7]; [28]) | Kochia plant response rating (0-100) (kochia (Bassia scoparia) [19]; [29]) | Soybean plant response rating (0-100) (soybean (Glycine max) [24]; [29]) | Ryegrass, Italian plant response rating (0-100) [26, 29]
90: Oat, Wild plant response rating (0-100) [5, 28] | Wheat plant response rating (0-100) [9, 28] | Oat, Wild plant response rating (0-100) [16, 29] | Wheat plant response rating (0-100) [20, 29] | Wheat plant response rating (0 to 100 scale) [20, 31] | Blackgrass plant response rating (0 to 100 scale) [23, 31]

CC1(C(=O)NC2CC=C(C(=O)O)C2)CN(c2cc(Cl)cc(Cl)c2)C(=O)O1 (centres unmarked) [Compound 72]
80: Kochia plant response rating (0-100) (kochia (Bassia scoparia) [8]; [32]) | Wheat plant response rating (0 to 100 scale) [9, 33] | Soybean plant response rating (0 to 100 scale) (soybean (Glycine max) [12]; [33]) | Ryegrass, Italian plant response rating (0 to 100 scale) [14, 33] | Kochia plant response rating (0 to 100 scale) (kochia (Bassia scoparia) [19]; [34]) | Kochia plant response rating (0 to 100 scale) (kochia (Bassia scoparia) [19]; [35]) | Wheat plant response rating (0 to 100 scale) [20, 34] | Galium plant response rating (0 to 100 scale) [22, 34] | Galium plant response rating (0 to 100 scale) [22, 35] | Soybean plant response rating (0 to 100 scale) (soybean (Glycine max) [24]; [34]) | Horseweed plant response rating (0 to 100 scale) [27, 35]
70: Ragweed plant response rating (0 to 100 scale) [21, 35] | Horseweed plant response rating (0 to 100 scale) [27, 34] | Ryegrass, Italian plant response rating (0 to 100 scale) [26, 34] | Ryegrass, Italian plant response rating (0 to 100 scale) [26, 35]
10: Oat, Wild plant response rating (0-100) [5, 32]
90: Barnyardgrass plant response rating (0 to 100 scale) [6, 33] | Kochia plant response rating (0 to 100 scale) (kochia (Bassia scoparia) [8]; [33]) | Amaranth, Palmer plant response rating (0-100) [13, 32] | Barnyardgrass plant response rating (0 to 100 scale) [17, 34] | Barnyardgrass plant response rating (0 to 100 scale) [17, 35] | Wheat plant response rating (0 to 100 scale) [20, 35] | Blackgrass plant response rating (0 to 100 scale) [23, 34] | Blackgrass plant response rating (0 to 100 scale) [23, 35] | Soybean plant response rating (0 to 100 scale) (soybean (Glycine max) [24]; [35]) | Amaranth, Palmer / Pigweed, Palmer plant response rating (0 to 100 scale) ([25]; Postemergence, 31 g ai/ha, greenhouse 10 days, 0 no effect, 100 complete control) | Amaranth, Palmer / Pigweed, Palmer plant response rating (0 to 100 scale) ([25]; Postemergence, 125 g ai/ha, 10 days, 0 is no effect, 100 is complete control)
98: Plant response rating, Sedge, Umbrella (0 to 100 scale, 0 is no effect and 100 is complete control) [2]
75: Plant response rating, Ducksalad (0 to 100 scale, 0 is no effect and 100 is complete control) [1]
60: Barnyardgrass plant response rating (0-100) [6, 32] | Corn plant response rating (0 to 100 scale) (corn (Zea mays) [7]; [33]) | Oat, Wild plant response rating (0 to 100 scale) [16, 35]
55: Plant response rating, Barnyardgrass (0 to 100 scale, 0 is no effect and 100 is complete control) [3]
50: Ragweed plant response rating (0 to 100 scale) [21, 34]
0: Corn plant response rating (0-100) (corn (Zea mays) [7]; [32]) | Ragweed plant response rating (0-100) [10, 32] | Blackgrass plant response rating (0-100) [11, 32] | Soybean plant response rating (0-100) (soybean (Glycine max) [12]; [32])
30: Blackgrass plant response rating (0 to 100 scale) [11, 33]
100: Amaranth, Palmer plant response rating (0 to 100 scale) [13, 33] | Corn plant response rating (0 to 100 scale) (corn (Zea mays) [18]; [34]) | Corn plant response rating (0 to 100 scale) (corn (Zea mays) [18]; [35])
40: Oat, Wild plant response rating (0 to 100 scale) [5, 33] | Wheat plant response rating (0-100) [9, 32] | Ragweed plant response rating (0 to 100 scale) [10, 33] | Ryegrass, Italian plant response rating (0-100) [14, 32] | Oat, Wild plant response rating (0 to 100 scale) [16, 34]
85: Plant response rating, Rice (0 to 100 scale, 0 is no effect and 100 is complete control) (rice (Oryza sativa))
